The structures appear in SMILES notation.

Experiment [1] relates to HEK293 clonal cell line overexpressing APOL1 G1. Briefly: APOL1 G1 HEK293 cell rescue assay (Example B3). It is filed as cell-based. The following applies: Homo sapiens, HEK293, HEK293 clonal line overexpressing APOL1 G1; geometric mean of at least 2 runs; † = single run; ¥ = concentration at 50% rescue estimated (no sigmoidal curve). Here is the method:
Compounds were also assayed in a HEK293 clonal cell line overexpressing APOL1 G1 by a method similar to that shown in Example B2 above.
Unless otherwise specified, EC50 values are reported as the geometric mean of at least 2 assay runs on separate days. Each run represents the average of a technical replicate, where each compound was assayed twice in the same plate. A superscript † symbol indicates a value from the average of a technical replicate from a single assay run, where each compound was assayed twice in the same plate. A ¥ symbol represents compound concentration at 50% rescue estimated due to lack of sigmoidal curve preventing curve fitting. Compounds in Table 41 are referred to by the corresponding Compound Number in Table 1, which is also referred to in the synthetic examples. When one or more of the numbered compounds are identified by stereochemistry (for example, (R)- or (S)-), the specific stereoisomer for which data is provided in Table 41 may be identified by the elution order of such compound as described in the synthetic examples. Absolute stereochemistry of such compounds may be identified by methods known in the art. For Table 41 below, n/a represents “not available”.
Rescue EC50 values reported in Table 41 below represent the half-maximal effective concentration for reversal of cell death caused by overexpression of APOL1.

Experiment [2] has as its system HEK293 cells overexpressing APOL1 G2. Briefly: APOL1 G2 HEK293 cell rescue assay (reversal of cell death caused by overexpression of APOL1). Format: cell-based. The conditions noted are these: Homo sapiens, HEK293, HEK293 overexpressing APOL1 G2; geometric mean of at least 2 assay runs; † = single assay run. Here is the method:
Unless otherwise specified, EC50 values are reported as the geometric mean of at least 2 assay runs on separate days. Each run represents the average of a technical replicate, where each compound was assayed twice in the same plate. A superscript t symbol indicates a value from the average of a technical replicate from a single assay run, where each compound was assayed twice in the same plate. Compounds in Table 40 are referred to by the corresponding Compound Number in Table 1, which is also referred to in the synthetic examples. When one or more of the numbered compounds are identified by stereochemistry (for example, (R)- or (S)-), the specific stereoisomer for which data is provided in Table 40 may be identified by the elution order of such compound as described in the synthetic examples. Absolute stereochemistry of such compounds may be identified by methods known in the art. For Table 40 below, n/a represents “not available”.
Rescue EC50 values reported in Table 40 below represent the half-maximal effective concentration for reversal of cell death caused by overexpression of APOL1.

Consider `C[C@]1(O)C[C@@H](N2C(=O)CCc3cc(OCCN4CCC5(CC4)C(=O)Nc4ccc(C#N)cc45)cc(C(F)(F)F)c32)C1` [Compound 354, 2-oxo-1′-[2-({2-oxo-1-[(cis)-3-hydroxy-3-methylcyclobutyl]-8-(trifluoromethyl)-1,2,3,4-tetrahydroquinolin-6-yl}oxy)ethyl]-1,2-dihydrospiro[indole-3,4′-piperidine]-5-carbonitrile], for which the EC50 was 0.0401 µM in experiment [1] and 0.0146 µM in experiment [2].

`CC1(O)CC(c2ncc(OCCN3CCC4(CC3)C(=O)Nc3ccc(Cl)cc34)cn2)C1` (centres unmarked) [Compound 373, 5-chloro-1′-(2-{[2-(3-hydroxy-3-methylcyclobutyl)pyrimidin-5-yl]oxy}ethyl)-1,2-dihydrospiro[indole-3,4′-piperidin]-2-one]: the results for the EC50 in experiment [1] and in experiment [2] were 0.133 µM and 0.0534 µM, respectively.

Turning to `C[C@]1(O)C[C@@H](n2c(=O)[nH]c3cc(OCCN4CCC5(CC4)C(=O)Nc4ccc(Cl)cc45)cnc32)C1` [Compound 374, 5-chloro-1′-[2-({2-oxo-3-[(cis)-3-hydroxy-3-methylcyclobutyl]-1H,2H,3H-imidazo[4,5-b]pyridin-6-yl}oxy)ethyl]-1,2-dihydrospiro[indole-3,4′-piperidin]-2-one], the EC50 in experiment [1] was 0.216 µM; in experiment [2] it was 0.101 µM.

Turning to `CC(O)c1ncc(OCCN2CCC3(CC2)C(=O)Nc2ccc(Cl)cc23)cc1C(F)(F)F` (centres unmarked) [Compound 399, 5-chloro-1′-(2-{[6-(1-hydroxyethyl)-5-(trifluoromethyl)pyridin-3-yl]oxy}ethyl)-1,2-dihydrospiro[indole-3,4′-piperidin]-2-one], the EC50 was 0.117 µM in experiment [1] and 0.0498 µM in experiment [2].

Turning to `CS(=O)(=O)C1(c2ncc(OCCN3CCC4(CC3)C(=O)Nc3c(Cl)cc(Cl)cc34)cn2)CC1` [Compound 400, 5,7-dichloro-1′-(2-{[2-(1-methanesulfonylcyclopropyl)pyrimidin-5-yl]oxy}ethyl)-1,2-dihydrospiro[indole-3,4′-piperidin]-2-one], the EC50 is 0.678 µM in experiment [1] and 0.224 µM in experiment [2].

Turning to `C[C@]1(O)C[C@@H](N2C(=O)CCc3cc(OCCN4CCC5(CC4)C(=O)Nc4c(Cl)cc(Cl)cc45)cnc32)C1` [Compound 409, 5,7-dichloro-1′-[2-({7-oxo-8-[(cis)-3-hydroxy-3-methylcyclobutyl]-5,6,7,8-tetrahydro-1,8-naphthyridin-3-yl}oxy)ethyl]-1,2-dihydrospiro[indole-3,4′-piperidin]-2-one], the EC50 was 0.136 µM in experiment [1] and 0.0702 µM in experiment [2].

For `[2H]C([2H])([2H])N1C(=O)C2(CCN(CCOc3cnc(C4(S(C)(=O)=O)COC4)nc3)CC2)c2cc(Cl)ccc21` [Compound 422, 5-chloro-1′-(2-{[2-(3-methanesulfonyloxetan-3-yl)pyrimidin-5-yl]oxy}ethyl)-1-(^2H3)methyl-1,2-dihydrospiro[indole-3,4′-piperidin]-2-one], the EC50 is 0.165 µM in experiment [1] and 0.0635 µM in experiment [2].

Consider `CC1(O)CC(n2ncc3cc(OCCN4CCC5(CC4)C(=O)Nc4ccc(C#N)cc45)cnc32)C1` (centres unmarked) [Compound 436, 1′-(2-{[1-(3-hydroxy-3-methylcyclobutyl)-1H-pyrazolo[3,4-b]pyridin-5-yl]oxy}ethyl)-2-oxo-1,2-dihydrospiro[indole-3,4′-piperidine]-5-carbonitrile], for which the EC50 is 0.114 µM in experiment [1] and 0.0801 µM in experiment [2].

As to `C[C@]1(O)C[C@H](n2ncc3cc(OCCN4CCC5(CC4)C(=O)Nc4ccc(C#N)cc45)cnc32)C1` [Compound 438, 2-oxo-1′-[2-({1-[(trans)-3-hydroxy-3-methylcyclobutyl]-1H-pyrazolo[3,4-b]pyridin-5-yl}oxy)ethyl]-1,2-dihydrospiro[indole-3,4′-piperidine]-5-carbonitrile], the EC50 in experiment [1] is 0.242 µM; in experiment [2] it was 0.204 µM.

In the case of `CS(=O)(=O)N1CCC(c2ccc(OCCN3CCC4(CC3)C(=O)Nc3ccc(Cl)cc34)cc2)CC1` [Compound 444, 5-chloro-1′-{2-[4-(1-methanesulfonylpiperidin-4-yl)phenoxy]ethyl}-1,2-dihydrospiro[indole-3,4′-piperidin]-2-one], the EC50 was 0.0723 µM in experiment [1] and 0.0224 µM in experiment [2].

Regarding `CC(C)(O)CN1C(=O)CCc2cc(OCCN3CCC4(CC3)C(=O)Nc3ccc(Cl)cc34)cnc21` [Compound 452, 5-chloro-1′-(2-{[8-(2-hydroxy-2-methylpropyl)-7-oxo-5,6,7,8-tetrahydro-1,8-naphthyridin-3-yl]oxy}ethyl)-1,2-dihydrospiro[indole-3,4′-piperidin]-2-one], the EC50 in experiment [1] is 0.0844 µM; in experiment [2], 0.0282 µM.

Turning to `C[C@]1(O)C[C@@H](N2C(=O)NCc3cc(OCCN4CCC5(CC4)C(=O)Nc4ccc(C#N)cc45)cc(C(F)(F)F)c32)C1` [Compound 457, 2-oxo-1′-[2-({2-oxo-1-[(cis)-3-hydroxy-3-methylcyclobutyl]-8-(trifluoromethyl)-1,2,3,4-tetrahydroquinazolin-6-yl}oxy)ethyl]-1,2-dihydrospiro[indole-3,4′-piperidine]-5-carbonitrile], the EC50 in experiment [1] was above 3.3 µM; in experiment [2], 0.278 µM.

For the compound `C[C@]1(O)C[C@@H](n2cnc3nc(OCCN4CCC5(CC4)C(=O)Nc4ccc(Cl)cc45)cc(C(F)(F)F)c32)C1` [Compound 471, 5-chloro-1′-[2-({1-[(cis)-3-hydroxy-3-methylcyclobutyl]-7-(trifluoromethyl)-1H-imidazo[4,5-b]pyridin-5-yl}oxy)ethyl]-1,2-dihydrospiro[indole-3,4′-piperidin]-2-one], the EC50 in experiment [1] and in experiment [2] was above 3.3 µM in each case.

By EC50 is commonly meant the concentration needed to bring the measured effect to its halfway point.

The values are drawn from US12344610B2, “APOL1 inhibitors and methods of use” (Maze Therapeutics, Inc., priority 2022, dated 2025).
